Results taken from paper PMC9911388, “Secondary metabolic profiling of Serratia marcescens NP10 reveals new stephensiolides and glucosamine derivatives with bacterial membrane activity” (Scientific Reports, 2023).

What was measured:
[1] = UPLC C18 retention time used as measure of hydrophobicity; type: physicochemical; details: chromatographic; UPLC-MS of NP10 crude extract; C18 Acquity UPLC HSS T3 1.8 μm, 2.1 × 150 mm; H2O/MeCN with 0.1% formic acid; 40 to 95% B from 0.5 to 15 min; 0.300 mL/min
Experimental: The pooled NP10 crude extract was analysed using UPLC-MS^E at the Liquid Chromatography Mass Spectrometry (LCMS) unit at the Central Analytical Facility (CAF, SU) as outlined in Clements-Decker et al.[4]. Briefly, the UPLC-MS^E was conducted on a Waters Synapt G2 high resolution mass spectrometer linked to an Acquity UPLC™ (Waters Corporation, Milford, USA). Three microlitres (1.00 mg/mL) was separated on an UPLC C18 reverse-phase analytical column (Acquity UPLC® HSS T3, 1.8 μm particle size, 2.1 × 150 mm, Waters Corporation, Dublin, Ireland). The UPLC was conducted with analytical quality H2O containing 0.1% (v/v) formic acid as solution A and MeCN containing 0.1% (v/v) formic acid as solution B at a flow rate of 0.300 mL/min as follows: 60% A from 0 to 0.5 min for loading, linear gradient from 40 to 95% (B) from 0.5 to 15 min and 95 to 40% (B) from 15 to 18 min. The positive mode ESI conditions included: 2.5 kV capillary voltage, 15 V cone voltage, 120 °C source temperature, desolvation temperature of 275 °C, 50 L/h cone gas flow, 650 L/h desolvation gas flow, and m/z range of 200 to 2000 in centroid mode.

[2] = test system: S. aureus RN4220; test: Membrane permeability assay: propidium iodide uptake; type: cell-based, Staphylococcus aureus; details: PI 10 µg/mL; for Time to two-fold increase in PI fluorescence from the initial reading: at MIC; for PI fluorescence (membrane permeabilisation): ½MIC and MIC, read over 60 min
Experimental: To gain insight into whether stephensiolides and glucosamine derivatives cause increased membrane permeability by forming lesions within the cell membrane of S. aureus, membrane permeability was assessed by monitoring the influx of propidium iodide (PI) and subsequent staining of nucleic acids within the cell, resulting in a fluorescent signal[23],[24]. Fluorescence was measured for 1 h at the MIC and ½MIC of compounds 12, 14, 22 and 26 (Fig. 5a and b).
The membrane permeability capabilities of GluA, GluC, StpK and StpU on S. aureus RN4220 was determined using propidium iodide (PI) (Sigma-Aldrich; St. Louis, MO, USA)[23]. This fluorescent dye can only enter bacterial cells through membrane lesions that are big enough to allow the large molecule (PI has a molecular mass of 668.087 g/mol) to pass through, thus providing an indication of changes in membrane permeability. Briefly, black Greiner CELLSTAR 96-well plates (Merck, Johannesburg, South Africa) were prepared with the selected four compounds at MIC and ½MIC and dried as described in the “Resazurin Broth Microdilution Assay” section. The S. aureus RN4220 strain was prepared in CA-MHB and grown to mid-log phase (OD600 of 0.5–0.6) and diluted to OD600 of 0.3. Propidium iodide (stock concentration of 1 mg/mL in water) was added to the cell suspension to a final concentration of 10 µg/mL and cells were incubated in the dark at room temperature for 10 min. Thereafter, 100 µL of OD adjusted PI cells in mid-log phase was dispensed into each well. Sterile broth and the OD adjusted inoculum with PI were included as a positive control, while sterile broth with PI was included as a negative control. Melittin served as a positive lytic control. Fluorometric readings of the plate were conducted in 2 min intervals over 60 min (readings began 120 s after cells were added to the compounds) using a Tecan Spark at 535 nm excitation wavelength and 617 nm emission wavelength.

[3] = test system: S. aureus RN4220; test: Resazurin broth microdilution assay (resazurin vitality assay); type: cell-based, Staphylococcus aureus; details: for MIC: RP-HPLC purified fractions, MIC = concentration giving ≥ 90% inhibition of growth by fluorometric reading, range 9.8 to 625 µg/mL, 1 h at 37 °C, then resazurin 1.5 h, triplicate, independent duplicate experiments; for IC50: derived from sigmoidal dose-response curves (GraphPad Prism, nonlinear regression, best-fit)
Experimental: The RP-HPLC purified fractions were tested for antibacterial activity using a broth microdilution assay coupled with the metabolic dye, resazurin[20] against S. aureus RN4220. The principle of the assay was based on the rate of reduction of the resazurin dye to resorufin, with survival of the cell equated to an increased conversion of this dye, while a decreased rate of conversion indicates impairment of cellular metabolism and was thus equated to cell death. Briefly, the test strain was inoculated into 10 mL of cation adjusted-Mueller Hinton broth (Sigma-Aldrich) (CA-MHB containing […]) and incubated at 37 °C for 18 to 24 h. Following overnight incubation, the culture was diluted into the respective media and grown to mid-log phase to obtain an optical density (OD) at 0.3 (± 1.4 × 10^8 cells mL^-1) determined at 600 nm.
The RP-HPLC fractions were then diluted in MeCN to a concentration of […]. Fifty microlitres of each fraction was dispensed into the first row of the respective wells of a clear Greiner CELLSTAR® 96-well culture plate (Merck, Johannesburg, South Africa) containing 50 μL of analytical quality H2O, in triplicate. A microdilution was performed in the 96-well culture in 50 μL of sterile analytical quality H2O in each well and the plate was dried at 50 °C for 18 to 24 h to remove the solvent. Thereafter, 10 μL of target cells in mid-log phase at the adjusted OD was dispensed into each well, resulting in a final antimicrobial concentration range of each fraction from 9.8 to 625 µg/mL and incubated for 1 h at 37 °C. After 1 h incubation, 90 μL of phosphate buffered saline (PBS) was added to each well, followed by 10 μL of resazurin [prepared to a stock solution 0.3 mg/mL in PBS; Sigma-Aldrich (St Louis, MO, USA)]. The plate was then incubated at 37 °C for 1.5 h. Finally, fluorometric readings of the plate were conducted using a Tecan Spark 10 M Multimode Microplate Reader at 560 nm excitation wavelength and 590 nm emission wavelength. Sterile broth and the OD adjusted inoculum were included in the assay as a positive control, while sterile broth was included as a negative control. Tests were performed in triplicate, with independent duplicate experiments.
The percentage inhibition was calculated as described by van Rensburg et al.[20]. […] The MIC vs retention time was plotted using Graphpad Prism version 3.01 for Windows [GraphPad Software, San Diego, USA (www.graphpad.com)].

[4] = test system: S. aureus RN4220; test: Membrane depolarisation assay: DiSC3(5); type: cell-based, Staphylococcus aureus; details: for Time to membrane depolarisation / Time to two-fold increase in DiSC3(5) fluorescent signal: at MIC; for Time to membrane depolarisation: DiSC3(5) assay; for Time to two-fold increase in DiSC3(5) fluorescent signal: from the initial reading at 120 s; for DiSC3(5) fluorescence (membrane depolarisation): ½MIC, MIC and two-fold MIC, DiSC3(5) 0.4 µM, read over 12 min
Experimental: To gain insight into whether stephensiolides and glucosamine derivatives cause membrane depolarisation of S. aureus, membrane potential was assessed by monitoring the release of the voltage-sensitive dye 3,3′-dipropylthiadicarbocyanine iodide [DiSC3(5)][25],[26].
The membrane depolarisation capabilities (ability to disrupt membrane potential) of GluA, GluC, StpK and StpU against S. aureus RN4220 was determined using the voltage-sensitive fluorescent probe, 3,3'-dipropylthiadicarbocyanine iodide [DiSC3(5)][25],[39]. Due to the cationic charge and hydrophobic nature of DiSC3(5), the fluorescent dye can penetrate and accumulate in lipid bilayers until Nernstian equilibrium is reached, resulting in the quenching of the fluorescent signal. Once depolarisation occurs (i.e., changes in ion permeability and dissipating transmembrane potential), the dye is rapidly released into the medium and subsequently results in the dequenching of the fluorescent signal. Briefly, black 96 well plates were prepared with the selected four compounds at two-fold MIC, MIC and ½MIC as described in the “Resazurin Broth Microdilution Assay” section. The S. aureus RN4220 strain was prepared in CA-MHB and grown to mid-log phase to obtain an OD600 of 0.5–0.6. Cells were harvested by centrifugation at 3000 rpm for 10 min and resuspended in HEPES buffer (5 mM, pH 7.4, containing 20 mM glucose; 100 mM KCl) to OD600 of 0.05. Thereafter, DiSC3(5) (stock concentration of 400 µM in 100% DMSO) was added to the cell suspension to a final concentration of 0.4 µM and cells were incubated in the dark at room temperature for 60 min. Cell suspensions (100 µL) were then dispensed into the wells of the 96 well plate containing the compounds. Sterile broth and the OD adjusted inoculum with DiSC3(5) were included as a non-fluorescent control, sterile broth with DiSC3(5) was included as a sterility control, and melittin was included as membrane depolarisation control. Fluorometric readings of the plate were conducted in 2 min intervals over 12 min (readings began 120 s after cells were added to the compounds) using a Tecan Spark at 622 nm excitation wavelength and 670 nm emission wavelength.

## Stephensiolide W [Compound 15]
[1]
  Rt (retention time, hydrophobicity): 10.31 min

## Stephensiolide L [Compound 1]
[1]
  Rt (retention time, hydrophobicity): 5.46 min

## Stephensiolide K [Compound 14]
[2]
  Time to two-fold increase in PI fluorescence from the initial reading: ≤ 36 min
  PI fluorescence (membrane permeabilisation): induced an increase in PI fluorescence over time
[1]
  Rt (retention time, hydrophobicity): 10.37 min
[3]
  MIC: 39 µg/mL
  IC50: 25 µg/mL
[4]
  Time to membrane depolarisation: ≤ 12 min
  Time to two-fold increase in DiSC3(5) fluorescent signal: 720 s
  DiSC3(5) fluorescence (membrane depolarisation): induced an increase in DiSC3(5) fluorescence at all concentrations tested

## Stephensiolide N [Compound 3]
[1]
  Rt (retention time, hydrophobicity): 7.17 min
[3]
  MIC: ≥ 300 µg/mL

## Stephensiolide Q [Compound 8]
[1]
  Rt (retention time, hydrophobicity): 8.09 min
[3]
  MIC: ≥ 300 µg/mL

## Stephensiolide S [Compound 10]
[1]
  Rt (retention time, hydrophobicity): 8.01 min

## Stephensiolide Y [Compound 17]
[1]
  Rt (retention time, hydrophobicity): 11.88 min

## Stephensiolide V [Compound 13]
[1]
  Rt (retention time, hydrophobicity): 9.74 min

## Stephensiolide R [Compound 9]
[1]
  Rt (retention time, hydrophobicity): 8.79 min
[3]
  MIC: ≥ 300 µg/mL

## Stephensiolide P [Compound 7]
[1]
  Rt (retention time, hydrophobicity): 7.00 min

## Stephensiolide O [Compound 6]
[1]
  Rt (retention time, hydrophobicity): 6.28 min

## Stephensiolide T [Compound 11]
[1]
  Rt (retention time, hydrophobicity): 8.92 min
[3]
  MIC: ≥ 300 µg/mL
[3]; listed as StpT
  MIC: no activity observed

## melittin [reference compound]
[2]
  PI fluorescence (membrane permeabilisation): expected increase in fluorescence signal
[4]; depolarisation control
  Time to rapid depolarisation (control): ≤ 240 s

## Stephensiolide M [Compound 2]
[1]
  Rt (retention time, hydrophobicity): 6.45 min

## Stephensiolide U [Compound 12]
[2]
  Time to two-fold increase in PI fluorescence from the initial reading: ≤ 28 min
  PI fluorescence (membrane permeabilisation): induced an increase in PI fluorescence over time
[1]
  Rt (retention time, hydrophobicity): 9.57 min
[3]
  MIC: 78 µg/mL
  IC50: 53 µg/mL
[4]
  Time to membrane depolarisation: ≤ 8 min
  Time to two-fold increase in DiSC3(5) fluorescent signal: 480 s
  DiSC3(5) fluorescence (membrane depolarisation): induced an increase in DiSC3(5) fluorescence at all concentrations tested

## Stephensiolide X [Compound 16]
[1]
  Rt (retention time, hydrophobicity): 10.87 min
